According to US12642852B1, “Genomic engineering of pluripotent cells” (Fate Therapeutics, Inc., priority 2015, dated 2026):

Legend:
[1] = system: puro-selected 293T cells with CMV-driven iCasp9 (AAVS1-G1.0) at AAVS1 locus; experiment: In vitro inducible killing by AP1903, 7AAD staining and flow cytometry, 293T cells; type: cell-based; settings: AP1903 10 nM or 120 nM, 24 hrs, DMSO control, n=2
Text: (§1) In vitro inducible killing of iCasp9-integrated iPSCs: The chemical inducer of dimerization (CID; AP1903) was purchased from Medchemexpress (Monmouth Junction, NJ). Twenty-four hours after CID exposure, the cells were harvested and stained with 7-amino actinomycin D (7-AAD) according to the manufacturer's instruction (BD Biosciences). The percentage of 7-AAD positive cells were quantified as dead cells by flow cytometry (Guava, EMD Millipore, Billerica, MA) and analyzed with flowjo software.
A donor construct encompassing CMV-driven iCasp9 (AAVS1-G1.0) was designed to target the AAVS1 locus (FIG. 1A) and to integrate the Casp9 suicide gene to 293T cells. The donor construct also comprise GFP and puromycin genes, the expression of which are driven by AAVS1 endogenous promoter once the targeted insertion takes place (FIG. 1A). 293T cells were transfected with ZFNs specific to AAVS1 locus and the donor construct AAVS1-G1.0. Three days after transfection, the puromycin selection was started and continued for 12 days. The puro-selected population was analyzed by flow cytometry for GFP expression, and a range of GFP expression levels were observed. It was observed that about 82% of the puro-selected cell population expressed GFP (FIG. 1B). […] The treated cells were then harvested and stained with 7AAD, which selectively stains membrane-compromised dying cells, and analyzed by flow cytometry. […]

iCasp9-integrated iPSCs = experiment: In vitro inducible killing of iCasp9-integrated iPSCs by AP1903, 7AAD/GFP flow cytometry; type: cell-based, human; settings: for cell death mediated by AP1903 (7AAD negative cells percentage): 24 hrs
Text: as §1
Similar to 293T cells, hiPSCs were transfected with ZFNs specific to AAVS1 locus and a donor construct encompassing CMV-driven iCasp9 (AAVS1-G1.0). The puromycin selection was started 3 days after transfection and continued for 16 days. The puro-resistant cells were analyzed by flow cytometry for GFP expression. Three populations based on the GFP intensity, GFP (neg), GFP (low) and GFP (hi) were sorted by flow cytometry (FIG. 1E). […] The treated cells were harvested and stained with 7AAD and analyzed by flow cytometry. […] However, in contrast to 293T cells with targeted Casp9 insertion at AAVS1 locus, cell death mediated by the AP1903 was not detected in all treatments in iPSCs with targeted Casp9 insertion at AAVS1 locus (FIG. 1F). […]
Because in the previous study puromycin selection under the AAVS1 promoter was robustly expressed to maintain viability and growth during selection, next a donor construct encompassing iCasp9 was designed to target the AAVS1 locus with endogenous AAVS1 promoter driving iCasp9 gene expression upon insertion (and GFP, and puromycin marker genes) (FIG. 2A). hiPSCs were transfected with ZFNs specific to AAVS1 locus and the donor construct encompassing iCasp9 under the control of AAVS1 endogenous promoter. […] The treated cells were harvested and stained with 7AAD and analyzed by flow cytometry. […] However, cell death mediated by the AP1903 was not detected in all treatments in iPSCs with targeted insertion of Casp9 at AAVS1 locus, and controlled Casp9 expression by endogenous AAVS1 promoter (FIG. 2C). […]

[2] = system: CAG-C38 iCasp9 iPSC clone with targeted insertion of sr39TK into H11 locus; experiment: Dual suicide gene safe guard system killing in vitro (iCasp9 at AAVS1, sr39TK at H11); type: cell-based, human
Text: In addition to CAG-iCasp9 integrated into AAVS1 locus, CAG-sr39TK was integrated into H11 safe harbor in CAG-C38 clonal iPSC using targeted insertion method described herein.

Compound | cell death (7AAD negative cells percentage) [1] | cell death mediated by AP1903 (7AAD negative cells percentage) (iCasp9-integrated iPSCs; hiPSCs with CMV-driven iCasp9, GFP (neg), GFP (low), GFP (hi) populations, 10 nM or 100 nM) | AP1903 cell death induction of GFP positive cells (iCasp9-integrated iPSCs; hiPSCs with EF1α-driven iCasp9 at AAVS1, puromycin selected 20 days) | cell death mediated by AP1903 (7AAD negative cells percentage) (iCasp9-integrated iPSCs; iPSCs with iCasp9 under endogenous AAVS1 promoter) | inducible killing ([2]; 10 nM AP1903 alone for two days) | inducible killing ([2]; 25 μg/mL GCV alone for nine days)
CC[C@H](C(=O)N1CCCC[C@H]1C(=O)O[C@H](CCc1ccc(OC)c(OC)c1)c1cccc(OCC(=O)NCCNC(=O)COc2cccc([C@@H](CCc3ccc(OC)c(OC)c3)OC(=O)[C@@H]3CCCCN3C(=O)[C@@H](CC)c3cc(OC)c(OC)c(OC)c3)c2)c1)c1cc(OC)c(OC)c(OC)c1 [AP1903] | Significant cell death was detected | not detected | although few, were responsive | not detected | inducible killing of most cells but rare cells remained | –
Nc1nc(O)c2ncn(COC(CO)CO)c2n1 [GCV, Ganciclovir] | – | – | – | – | – | expanded GCV-refractory cells
